From patent US8377989B2, “Room temperature stable non-crystalline aspirin and method for the preparation thereof” (priority 2007, dated 2013)

Columns and labels:
[1] = 100 K (−173° C.) versus ambient conditions; cited from earlier work
[2] = Flow test: Petri dish with sample placed on edge; type: physicochemical; details: Example 3; Petri dish on edge for about six weeks
Excerpt: (§1) Subsequent tests with the protocol of Example 2 were repeated with the order of long and short wavelengths reversed, i.e., short wavelength followed by long wavelength cycled sequenced laser treatment. This protocol also produced up to 90 percent yields of room temperature stable non-crystalline glass aspirin, which remained stable at room temperature for over 23 months. The Petri dish containing such a sample of non-crystalline aspirin was placed on edge for a period of about six weeks.

[3] = Storage stability of the non-crystalline form at room temperature (appearance, PXRD); type: physicochemical; details: for time the non-crystalline glass form remained stable: room temperature
Excerpt: Within an hour of the evaporative desolvation process following the laser treatment, the system stabilized with 80 percent or more of the mass of the sample cured to a clear non-crystalline glass rather than a crystalline form.
After the 6 months of storage, the laser treated aspirin was studied by PXRD.
as §1

[4] = 298K; vitrified by melting and cooling or ball-milling; cited from earlier work

CC(=O)Oc1ccccc1C(=O)O [Aspirin Form II]
stability of the polymorphic form [1]: kinetically stable at 100 K (−173° C.), but converts back to Form I at ambient conditions

CC(=O)Oc1ccccc1C(=O)O [non-crystalline aspirin, acetylsalicylic acid]
flowing of the sample [2]: No flowing of the sample was observed
crystallization on further storage ([3]; Example 2, additional six months of storage after the first 6 months): No crystallization has been observed
storage period with no change in appearance of the sample ([3]; Example 2, room temperature of about 18° to 22° C., about 30 to 40 percent humidity): over 6 months
time remained stable at room temperature ([3]; Example 3, short wavelength followed by long wavelength laser treatment): over 23 months
time the non-crystalline glass form remained stable [3]: stable at room temperature once the solvent had evaporated
time the non-crystalline glass form remained stable ([3]; listed as glass aspirin): stable for up to about a year at room temperature
time the non-crystalline glass form remained stable ([3]; listed as non-crystalline glass form): stable at room temperature for at least up to about a year
time the non-crystalline form remained stable ([3]; temperature of about 20° to 30° C.): stable at a temperature of about 20° to 30 °C for at least about a year

CC(=O)Oc1ccccc1C(=O)O [vitreous aspirin]
stability against crystallization [4]: did not crystallize for four to five days
